Results reported in US9795585B2, “Methods of using L-butylphthalide for the prevention and treatment of cerebral ischemia disease” (priority 2004, dated 2017).
Where “and” joins values, the source holds several entries; their conditions need not be identical. Identical values can stand only once.

What was measured:
[1] = tested on: focal cerebral ischemia in rats; assay: Memory disorder induced by focal cerebral ischemia (shuttle box, artery ligation by method of Tamura); format: in vivo, male Wistar rats; conditions: 15 and 30 mg/kg oral 15 min after operation; observed after 24 hours; vs vehicle control
Experimental: Experimental Animal: The same as Example 1. Experimental Equipment: Shuttle box. Experimental Methods: • 1. Rats were trained to acquire learning and memory; • 2. Artery ligation: Artery ligation was conducted on rats according to the method of Tamura. After 24 hours, the experiment of learning as in step (1) was repeatedly conducted on rats. • 3. Grouping and administration: the rats were divided into 9 groups, which were normal group, pseudo-operation group, ischemia control group, and groups of dl-, d-, and l-NBP (15 and 30 mg/kg). The rats were orally administered at 15 min after the operation, and the changes of latency of active and passive avoidance response were observed after 24 hours.

[2] = tested on: ischemic region (corpus striatum) of rats with blocked cerebral artery; assay: Focal cerebral blood flow after ligation of cerebral artery (method of Tamura); format: in vivo, Male wistar rats
Experimental: (§1) Experimental Animals: Male wistar rats.
(§2) Experimental Equipments: SXP operating microscope, 62TZ-V model high frequency electrotome, solid positioner, Diamond Electro-Tech chemical microsensor 1231, two channel physiological parameter recorder.
(§3) Experimental Methods: • (1) dl-, d-, and l-NBP (15 and 30 mg/kg) and the vehicle were orally administered to the normal rats, and the changes of cerebral blood flow at different time after the administration were measured. • (2) ligation of cerebral artery was conducted on rats according to the method of Tamura. Oral administration was performed at 10 min after the operation. The rats were divided into 9 groups, which were normal group, pseudo-operation group, vehicle control group, and groups of dl-, d-, and l-NBP (15 and 30 mg/kg).

[3] = tested on: cerebral ischemia-reperfusion rats; assay: Behavioral disorder and cerebral infarct area in cerebral ischemia-reperfusion rats (MCAO by nylon suture, 1.5 h); format: in vivo, male Wistar rats; conditions: for neurological deficit scores (effect in words) / potency on neurological deficit scores compared among l, dl and d-NBP: 24 hours after intravenous injection; for reduction of cerebral infarct area / ED50 (cerebral infarct area): i.v., vs model control group; for cerebral infarct area (effect in words): intravenous administration, effect increases with dose
Description: Experimental Animal: The same as Example 1
Experimental Equipments: The same as Example 7
Experimental Methods: The rats were anesthetized, and fixed in lateral decubitus position. Under the operating microscope, a midline neck skin incision was made to expose the left common cartotid artery. The surrounding nerves and fascia from the bifurcation of common carotid artery to the vascular of basis cranii were removed.
The internal carotid artery was then separated and carefully separated free from vagus nerve. Pterygopalatine artery was ligated at the root of the internal carotid artery. A 6# needle for injection containing 3# nylon suture (diameter of 0.285 mm) was punctured into the free end of the external carotid artery, advancing the nylon suture into the blood vascular. The needle was carefully withdrawn, and the nylon suture was guided into the internal carotid artery from the distal end of the external carotid artery up till to Willis ring, so as to effectively block the middle cerebral artery.
Depending on the body weight, the distance from the inserted nylon suture to the bifurcation of common carotid artery was 18 to 20 mm. The free end of the external carotid artery and the nylon suture therein were ligated together, in order to prevent bleeding. The muscle and the skin were then sutured layer by layer, and penicillin was dropped to prevent infection. To effectively block the middle cerebral artery, the tip of the nylon suture was made round by burning with the flame, and coated with 0.1% of poly-L-lysine. The nylon suture was baked in a 60° C. oven for 1 hour.
Due to the ability of poly-L-lysine to binding the cell and the protein to the plastic surface, and thus allow the negative charged nylon suture changing into a positive charged one and attract the anion ionic part of the endothelial cell, the nylon suture was closely bond to the endothelial surface, so as to prevent the leakage of the blood from the surrounding of the suture. Only the internal carotoid artery was separated from the animals of pseudo-operation group.
At 1.5 hours after the initiation of MCAO, the nylon suture within the lumen of the internal carotoid artery was carefully withdrawn, and the internal carotoid artery was allowed to reperfusion. The rats were then placed back into the cage.

[4] = tested on: normal rats; format: in vivo, Male wistar rats; conditions: 15 and 30 mg/kg oral; for cerebral blood flow rate in normal rats: 30 minutes after administration
Experimental: as §1, §2, §3

[5] = tested on: cerebral apoplexy in spontaneous hypertension rats; assay: Cerebral apoplexy in salt-loaded spontaneous hypertensive rats; format: in vivo
Experimental: Experimental Animals: spontaneous hypertensive rats of 6 weeks old. Experimental Methods: Spontaneous hypertensive rats of 6 weeks old were divided into 8 groups with 10 rats per group. 0.8 to 0.9 g per day of common salt was administered starting from week 6. […] The scores of neurological deficit and the time of death were recorded.

[6] = tested on: permanent cerebral ischemic rats; assay: Behavioral disorder and cerebral infarct area in permanent cerebral ischemic rats (FeCl3 on middle cerebral artery); format: in vivo, Wistar rats; conditions: for reduction of cerebral infarct area / neurological deficit scores (effect in words) / ED40 (cerebral infarct area): vs model control group; for decrease of neurological deficit scores / ED30 (neurological deficit scores): i.v., 24 hours after administration; for neurological deficit scores (effect in words): intravenous injection
Experimental: Experimental Animal: The same as Example 1. Experimental Equipments: COOLPIX955 digital camera, 722 grating spectroscope, XHF-1 high-speed disperser, YKH-II liquid high-speed mixer, WZ-50C2 micro infusion pump. Experimental Methods: Wistar rats were anesthetized by intraperitoneally injecting 12% chloral hydrate in 350 mg/kg, and fixed in lateral decubitus position. The skin at the midpoint on the line from exterior auditory canal to canthus was cut. The muscle was separated layer by layer to expose zygomatic arch and the squamous part of temporal bone. The zygomatic arch was scissored and then placed under an operating microscope. A window of 2 mm diameter was drilled by using a dentistry drill at a position of 2 mm under the anterior joint between zygomatic arch and the squamous part of temporal bone, so as to expose the middle cerebral artery. A little piece of filter paper was applied onto the middle artery, and 10 μl of 50% FeCl3 aqueous solution was dripped onto the filter paper. The filter paper was removed after 30 min, and washed with physiological brine. Two to three drops of penicillin (1.6×10^5 U/mL) were added so as to prevent infection of the cut. Then the cut was sutured layer by layer.

[7] = tested on: cerebral injury-induced cerebral ischemia in rats; assay: Neural symptoms induced by cerebral injury in rats; format: in vivo, male Wistar rats; conditions: 50 mg/kg oral 5 minutes after cerebral injury; scored after 24 hours; vs vehicle control
Experimental: Experimental Animals: male Wistar rats
Experimental Methods: Cerebral injury in rats was caused by allowing a cone-shaped metal object weighing 220 g to freely fall from a position of 30 cm height and to strike the skull cap behind the left coronal suture. dl-, d-, and l-NBP (50 mg/kg) and the vehicle (control group) were orally administered after 5 minutes, and the behavioral changes were scored after 24 hours.

[8] = 25 and 50 mg/kg/d oral until 3 weeks after apoplexy, dose-dependent

Row | Structure (SMILES) | times of active avoidance [1] | neurological deficit scores (effect in words) [3] | potency on neurological deficit scores compared among l, dl and d-NBP [3] | reduction of cerebral infarct area ([3]; first of three doses) | ED50 (cerebral infarct area) [3] | cerebral infarct area (effect in words) [3] | reduction of cerebral infarct area ([3]; second of three doses) | reduction of cerebral infarct area ([3]; third of three doses) | cerebral blood flow rate in normal rats [4] | reduction of cerebral infarct area ([6]; first of three doses) | decrease of neurological deficit scores ([6]; high dose) | ED30 (neurological deficit scores) [6] | neurological deficit scores (effect in words) [6] | decrease of neurological deficit scores ([6]; low dose) | decrease of neurological deficit scores ([6]; moderate dose) | reduction of cerebral infarct area ([6]; second of three doses) | reduction of cerebral infarct area ([6]; third of three doses) | ED40 (cerebral infarct area) [6] | neural symptoms (behavioral changes scored) [7] | further results
1 | CCCCC1OC(=O)c2ccccc21 (racemic) [dl-NBP, butylphthalide] | not observed | improvement | no significant difference | 37.9% and 34.8% | 5.5 mg/kg and 5.7 mg/kg | significantly reduce | 48.5% and 46.5% | 59.2% and 60.9% | no such effects | 29.2% | 37.5% | 7.2 mg/kg | improvement | 15.6% | 21.9% | 35.2% | 44.4% | 7.1 mg/kg | no significant effect | focal blood flow in the corpus striatum on the side of the blocked cerebral artery ([2]; 30 mg/kg oral 10 min after operation, similar increase seen): no statistical significance; preventive and therapeutic effect on cerebral apoplexy (overall) ([5]; 25 and 50 mg/kg/d oral): merely had such effect at relatively high doses; cerebral infarct area (effect in words) ([6]; 2.5 mg/kg, tendency of reducing): not significant
2 | CCCC[C@@H]1OC(=O)c2ccccc21 [l-NBP, L-butylphthalide] | significantly increased | improvement | no significant difference | 40.8% | 3.8 mg/kg | significantly reduce | 57.0% | 68.5% | significantly increased | 38.4% | 35.9% | 6.2 mg/kg | improvement | 17.2% | 29.7% | 41.9% | 50.7% | 3.3 mg/kg | significantly reduced | focal blood flow in the corpus striatum on the side of the blocked cerebral artery ([2]; 15 and 30 mg/kg oral 10 min after operation, vs vehicle control, dose-dependent): significantly increase; effect on cerebral infarct area relative to d-NBP ([3]; as calculated by ED50): about 1.5 times; time after administration till which cerebral blood flow rate was maintained at a relative high level ([4]; normal rats): 50 min; time of the occurrence of cerebral apoplexy ([5]; 25 and 50 mg/kg/d oral from week 8, vs vehicle control): significantly delay; neurological deficit after cerebral apoplexy [5, 8]: reduce; viability after the occurrence of cerebral apoplexy [5, 8]: significantly increase; cerebral infarct area (effect in words) ([6]; 5 and 10 mg/kg, effect increased with dose): significantly reduce; effect on cerebral infarct area relative to d-NBP ([6]; as calculated by converting into ED50): about 3.1 times; cerebral infarct area (effect in words) ([6]; dose not given): significantly reduce
